# Assay results published in patent publication US10787452B2 (Vertex Pharmaceuticals Incorporated, priority 2012, dated 2020).
# Test system: HCT116 colorectal cancer cells
# Assay: Cisplatin sensitization assay (96 h cell viability MTS);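 also: compound concentration needed to lower the Cisplatin-alone IC50 by a set fold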
# Format: cell-based
# Conditions: 96 h MTS, compound plus Cisplatin
# Description: Compounds can be screened for their ability to sensitize HCT116 colorectal cancer cells to Cisplatin using a 96 h cell viability (MTS) assay. […] Compounds and Cisplatin are then both added simultaneously to the cell media in 2-fold serial dilutions from a top final concentration of 10 μM as a full matrix of concentrations in a final cell volume of 200 μl, and the cells are then incubated at 37° C. in 5% CO2. After 96 h, 40 μl of MTS reagent (Promega G358a) is added to each well and the cells are incubated for 1 h at 37° C. in 5% CO2.
row,SMILES,Cisplatin Sensitization Assay
1,"Nc1nn2cc(F)cnc2c1C(=O)Nc1cnccc1N1CCC2(CCNC2)CC1 [I-N-255, N-(4-(2,8-diazaspiro[4.5]decan-8-yl)pyridin-3-yl)-2-amino-6-fluoropyrazolo[1,5-a]pyrimidine-3-carboxamide]",++ (Compounds with a Cisplatin sensitization value >0.02 μM but <0.2 μM are marked with “++.”)
2,"Nc1nn2cc(F)cnc2c1C(=O)Nc1cncc(F)c1N1CCN2C(=O)CCC2C1 (stereo not drawn) [I-N-163, 2-amino-6-fluoro-N-(5-fluoro-4-(6-oxohexahydropyrrolo[1,2-a]pyrazin-2(1H)-yl)pyridin-3-yl)pyrazolo[1,5-a]pyrimidine-3-carboxamide]",+++ (Compounds with a Cisplatin sensitization value of <0.02 μM are marked with “+++.”)
3,"COC(=O)[C@H]1CC[C@H](Oc2ccncc2NC(=O)c2c(N)nn3cc(F)cnc23)CC1 [I-O-13, (1r,4r)-methyl 4-((3-(2-amino-6-fluoropyrazolo[1,5-a]pyrimidine-3-carboxamido)pyridin-4-yl)oxy)cyclohexanecarboxylate]",+++ (Compounds with a Cisplatin sensitization value of <0.02 μM are marked with “+++.”)
4,"Nc1nn2cc(F)cnc2c1C(=O)Nc1cncc(F)c1N1CCN(C2COC2)CC1 [I-N-13, 2-amino-6-fluoro-N-(5-fluoro-4-(4-(oxetan-3-yl)piperazin-1-yl)pyridin-3-yl)pyrazolo[1,5-a]pyrimidine-3-carboxamide]",+++ (Compounds with a Cisplatin sensitization value of <0.02 μM are marked with “+++.”)
5,"Cc1nnc(N2CCN(c3ccncc3NC(=O)c3c(N)nn4cc(F)cnc34)CC2)o1 [I-N-256, 2-amino-6-fluoro-N-(4-(4-(5-methyl-1,3,4-oxadiazol-2-yl)piperazin-1-yl)pyridin-3-yl)pyrazolo[1,5-a]pyrimidine-3-carboxamide]",++ (Compounds with a Cisplatin sensitization value >0.02 μM but <0.2 μM are marked with “++.”)
6,"Nc1nn2cc(F)cnc2c1C(=O)Nc1cnccc1-c1ccccn1 [I-C-60, N-([2,4′-bipyridin]-3′-yl)-2-amino-6-fluoropyrazolo[1,5-a]pyrimidine-3-carboxamide]",++ (Compounds with a Cisplatin sensitization value >0.02 μM but <0.2 μM are marked with “++.”)
7,"Cn1ccc2cncc(NC(=O)c3c(N)nn4cc(F)cnc34)c21 [I-N-259, 2-amino-6-fluoro-N-(1-methyl-1H-pyrrolo[3,2-c]pyridin-7-yl)pyrazolo[1,5-a]pyrimidine-3-carboxamide]",+ (Compounds with a Cisplatin sensitization value >0.2 μM but <5 μM are marked with “+.”)
8,"Nc1nn2cc(Cl)cnc2c1C(=O)Nc1cnccc1N1CCNC(C(F)(F)F)C1 (stereo not drawn) [I-N-70, 2-amino-6-chloro-N-(4-(3-(trifluoromethyl)piperazin-1-yl)pyridin-3-yl)pyrazolo[1,5-a]pyrimidine-3-carboxamide]",++ (Compounds with a Cisplatin sensitization value >0.02 μM but <0.2 μM are marked with “++.”)
9,Cc1cncc(NC(=O)c2c(N)nn3cc(F)cnc23)c1-n1nccc1C [I-N-237],+ (Compounds with a Cisplatin sensitization value >0.2 μM but <5 μM are marked with “+.”)
10,"N#CCc1cnc2c(C(=O)Nc3cnccc3OC3CCNCC3)c(N)nn2c1 [I-O-84, 2-amino-6-(cyanomethyl)-N-(4-(piperidin-4-yloxy)pyridin-3-yl)pyrazolo[1,5-a]pyrimidine-3-carboxamide]",++ (Compounds with a Cisplatin sensitization value >0.02 μM but <0.2 μM are marked with “++.”)
11,"Nc1nn2cc(F)cnc2c1C(=O)Nc1cncc(F)c1N1CCCCC1 [I-N-270, 2-amino-6-fluoro-N-(5-fluoro-4-(piperidin-1-yl)pyridin-3-yl)pyrazolo[1,5-a]pyrimidine-3-carboxamide]",+++ (Compounds with a Cisplatin sensitization value of <0.02 μM are marked with “+++.”)
12,"Nc1nn2cc(F)cnc2c1C(=O)Nc1cnccc1N1CCC(S(=O)(=O)N2CCC2)CC1 [I-N-271, 2-amino-N-(4-(4-(azetidin-1-ylsulfonyl)piperidin-1-yl)pyridin-3-yl)-6-fluoropyrazolo[1,5-a]pyrimidine-3-carboxamide]",+++ (Compounds with a Cisplatin sensitization value of <0.02 μM are marked with “+++.”)
13,"N#CCc1cnc2c(C(=O)Nc3cnccc3N3CCC(N)CC3)c(N)nn2c1 [I-N-2, 2-amino-N-(4-(4-aminopiperidin-1-yl)pyridin-3-yl)-6-(cyanomethyl)pyrazolo[1,5-a]pyrimidine-3-carboxamide]",+++ (Compounds with a Cisplatin sensitization value of <0.02 μM are marked with “+++.”)
14,"Nc1nn2cc(F)cnc2c1C(=O)Nc1cnccc1N1CCN(S(=O)(=O)C2CC2)CC1 [I-N-176, 2-amino-N-(4-(4-(cyclopropylsulfonyl)piperazin-1-yl)pyridin-3-yl)-6-fluoropyrazolo[1,5-a]pyrimidine-3-carboxamide]",+++ (Compounds with a Cisplatin sensitization value of <0.02 μM are marked with “+++.”)
15,"Nc1nn2cc(F)cnc2c1C(=O)Nc1cnccc1-c1ccc(C(=O)N2CCN(C3COC3)CC2)nc1 [I-C-52, 2-amino-6-fluoro-N-(6-(4-(oxetan-3-yl)piperazine-1-carbonyl)-[3,4′-bipyridin]-3′-yl)pyrazolo[1,5-a]pyrimidine-3-carboxamide]",++ (Compounds with a Cisplatin sensitization value >0.02 μM but <0.2 μM are marked with “++.”)
16,"Nc1nn2cc(F)cnc2c1C(=O)Nc1cncc(F)c1N1CCC(C(=O)N2CC(O)C2)CC1 [I-G-41, 2-amino-6-fluoro-N-(5-fluoro-4-(4-(3-hydroxyazetidine-1-carbonyl)piperidin-1-yl)pyridin-3-yl)pyrazolo[1,5-a]pyrimidine-3-carboxamide]",+++ (Compounds with a Cisplatin sensitization value of <0.02 μM are marked with “+++.”)
17,"CS(=O)(=O)C1CCN(c2ccncc2NC(=O)c2c(N)nn3cc(F)cnc23)CC1 [I-N-190, 2-amino-6-fluoro-N-(4-(4-(methylsulfonyl)piperidin-1-yl)pyridin-3-yl)pyrazolo[1,5-a]pyrimidine-3-carboxamide]",+++ (Compounds with a Cisplatin sensitization value of <0.02 μM are marked with “+++.”)
18,"Nc1nn2cc(F)cnc2c1C(=O)Nc1cncc(F)c1N1CCCC1 [I-N-246, 2-amino-6-fluoro-N-(5-fluoro-4-(pyrrolidin-1-yl)pyridin-3-yl)pyrazolo[1,5-a]pyrimidine-3-carboxamide]",++ (Compounds with a Cisplatin sensitization value >0.02 μM but <0.2 μM are marked with “++.”)
19,"Nc1nn2cc(F)cnc2c1C(=O)Nc1cnccc1N1CCC(CN2CCC(F)(F)C2)CC1 [I-N-197, 2-amino-N-(4-(4-((3,3-difluoropyrrolidin-1-yl)methyl)piperidin-1-yl)pyridin-3-yl)-6-fluoropyrazolo[1,5-a]pyrimidine-3-carboxamide]",+++ (Compounds with a Cisplatin sensitization value of <0.02 μM are marked with “+++.”)
20,"Nc1nn2cc(F)cnc2c1C(=O)Nc1cnccc1N1CCC(N2CCCC2=O)CC1 [I-N-230, 2-amino-6-fluoro-N-(4-(4-(2-oxopyrrolidin-1-yl)piperidin-1-yl)pyridin-3-yl)pyrazolo[1,5-a]pyrimidine-3-carboxamide]",+++ (Compounds with a Cisplatin sensitization value of <0.02 μM are marked with “+++.”)
21,"Nc1nn2cc(F)cnc2c1C(=O)Nc1cncc(F)c1N1CCC(C(=O)N2CC(N3CCCCC3)C2)CC1 [I-G-57, 2-amino-6-fluoro-N-(5-fluoro-4-(4-(3-(piperidin-1-yl)azetidine-1-carbonyl)piperidin-1-yl)pyridin-3-yl)pyrazolo[1,5-a]pyrimidine-3-carboxamide]",+++ (Compounds with a Cisplatin sensitization value of <0.02 μM are marked with “+++.”)
22,CC(C)(C#N)c1cnc2c(C(=O)Nc3cncc(F)c3N3CCN(C4COC4)CC3)c(N)nn2c1 [I-N-144],+++ (Compounds with a Cisplatin sensitization value of <0.02 μM are marked with “+++.”)
23,"CN1CCN(C(=O)N2CCN(c3c(F)cncc3NC(=O)c3c(N)nn4cc(F)cnc34)CC2)CC1 [I-N-140, 2-amino-6-fluoro-N-(5-fluoro-4-(4-(4-methylpiperazine-1-carbonyl)piperazin-1-yl)pyridin-3-yl)pyrazolo[1,5-a]pyrimidine-3-carboxamide]",+++ (Compounds with a Cisplatin sensitization value of <0.02 μM are marked with “+++.”)
24,"Nc1nn2cc(F)cnc2c1C(=O)Nc1cnccc1N1CCC(C(=O)N2CCC2)CC1 [I-G-77, 2-amino-N-(4-(4-(azetidine-1-carbonyl)piperidin-1-yl)pyridin-3-yl)-6-fluoropyrazolo[1,5-a]pyrimidine-3-carboxamide]",+++ (Compounds with a Cisplatin sensitization value of <0.02 μM are marked with “+++.”)
25,"C[C@H]1CN(C(=O)C2CCN(c3c(F)cncc3NC(=O)c3c(N)nn4cc(F)cnc34)CC2)CCN1C [I-G-47, (S)-2-amino-N-(4-(4-(3,4-dimethylpiperazine-1-carbonyl)piperidin-1-yl)-5-fluoropyridin-3-yl)-6-fluoropyrazolo[1,5-a]pyrimidine-3-carboxamide]",+++ (Compounds with a Cisplatin sensitization value of <0.02 μM are marked with “+++.”)
26,"N#CCc1cnc2c(C(=O)Nc3cnccc3O[C@H]3CCOC3)c(N)nn2c1 [I-O-42, (S)-2-amino-6-(cyanomethyl)-N-(4-((tetrahydrofuran-3-yl)oxy)pyridin-3-yl)pyrazolo[1,5-a]pyrimidine-3-carboxamide]",+++ (Compounds with a Cisplatin sensitization value of <0.02 μM are marked with “+++.”)
27,"C[C@@H]1CN(C(=O)C2CCN(c3c(F)cncc3NC(=O)c3c(N)nn4cc(F)cnc34)CC2)CCN1 [I-G-45, (R)-2-amino-6-fluoro-N-(5-fluoro-4-(4-(3-methylpiperazine-1-carbonyl)piperidin-1-yl)pyridin-3-yl)pyrazolo[1,5-a]pyrimidine-3-carboxamide]",+++ (Compounds with a Cisplatin sensitization value of <0.02 μM are marked with “+++.”)
